Series [1] concerns the target T1, recombinant human full length Chk1 (Homo sapiens, UniProt O14757).
T1 construct: baculovirus derived recombinant human full length Chk1 with histidine tag; histidine tag; host or cells: baculovirus system (insect cells) for Chk1; E. coli for the GST-Cdc25C substrate
T1 sequence (O14757 1-476): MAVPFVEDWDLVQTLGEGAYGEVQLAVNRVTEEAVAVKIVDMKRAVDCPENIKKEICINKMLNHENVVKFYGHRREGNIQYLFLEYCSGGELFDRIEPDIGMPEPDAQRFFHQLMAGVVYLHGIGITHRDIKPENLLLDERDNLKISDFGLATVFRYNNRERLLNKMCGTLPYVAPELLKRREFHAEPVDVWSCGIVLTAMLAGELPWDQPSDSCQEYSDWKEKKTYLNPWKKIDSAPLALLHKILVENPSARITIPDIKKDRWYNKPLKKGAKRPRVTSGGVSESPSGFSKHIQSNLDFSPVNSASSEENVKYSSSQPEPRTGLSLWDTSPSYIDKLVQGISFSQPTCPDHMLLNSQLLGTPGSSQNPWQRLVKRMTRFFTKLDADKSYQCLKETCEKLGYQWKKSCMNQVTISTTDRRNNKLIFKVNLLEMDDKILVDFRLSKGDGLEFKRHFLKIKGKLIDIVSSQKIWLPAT
As to the kind of experiment: In vitro kinase inhibition (CycLex), phosphorylation of serine 216 on GST-Cdc25C. It is filed as biochemical. The procedure:
(§1) In vitro kinase inhibition analysis was performed by CycLex, Co. Ltd., Nagano, Japan. Briefly, baculovirus derived recombinant human full length Chk1 with histidine tag or E. Coli derived recombinant human full length Chk2 fused with GST were used as kinases. E. Coli derived recombinant GST-Cdc25C (amino acis 167-267) was used as a substrate. Reaction conditions were 20 mM Hepes-KOH (pH7.5), 1 mM DTT, 80 μg/ml BSA, 10 mM MgCl2 and […] at 30 degree for 60 min. The phosphorylation of serine 216 on GST-Cdc25C was detected by anti-Cdc25C-phosphorylated 5216 antibody with enzyme linked immune assay.

In series [2] the target is T2, recombinant human full length Chk2 (Homo sapiens, UniProt O96017).
T2 construct: E. Coli derived recombinant human full length Chk2 fused with GST; host or cells: E. coli
T2 sequence (O96017 whole entry, the tested form may be a part): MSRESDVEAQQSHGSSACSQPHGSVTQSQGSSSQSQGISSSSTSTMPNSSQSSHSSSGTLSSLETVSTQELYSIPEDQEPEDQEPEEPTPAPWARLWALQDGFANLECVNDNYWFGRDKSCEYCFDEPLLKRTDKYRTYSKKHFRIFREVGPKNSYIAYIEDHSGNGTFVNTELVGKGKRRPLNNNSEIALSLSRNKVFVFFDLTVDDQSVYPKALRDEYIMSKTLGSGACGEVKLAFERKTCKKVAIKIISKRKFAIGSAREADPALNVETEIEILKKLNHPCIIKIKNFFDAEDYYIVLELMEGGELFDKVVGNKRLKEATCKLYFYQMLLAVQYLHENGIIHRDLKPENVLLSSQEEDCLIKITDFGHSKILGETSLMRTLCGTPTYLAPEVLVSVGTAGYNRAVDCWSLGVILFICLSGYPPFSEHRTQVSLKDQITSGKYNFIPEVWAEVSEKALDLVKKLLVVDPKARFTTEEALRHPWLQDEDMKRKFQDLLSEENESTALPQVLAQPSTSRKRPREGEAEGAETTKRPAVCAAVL
The description is as above. It is filed as biochemical. The procedure: as §1

The subject of series [3] is Jurkat cells. As to the kind of experiment: G2 checkpoint abrogation, flow cytometry of bleomycin treated Jurkat cells. It is filed as cell-based, human. The conditions noted are these: Jurkat cells with bleomycin 40 μg/ml. (In general: A flow cytometer gives signals particle by particle.)
Procedure: Flow cytometry analysis of G2 checkpoint abrogation was performed using human leukemia derived Jurkat cell line. In brief, cultured cells were treated with various doses of peptide/peptidomimetic and 40 μg/ml bleomycine for 24 hr. The DNA of the cells was stained with propidium iodide and analyzed by flow cytometry.
The G2 checkpoint abrogating activity of various arginine rich sequences at different doses on cells treated with bleomycine was studied. Briefly, peptides were added to culture medium of Jurkat cells with bleomycin (40 μg/ml) at 0.2 μg/ml, 0.39 μg/ml, 0.78 μg/ml, 1.56 μg/ml, 3.125 μg/ml, 6.25 μg/ml, 12.5 μg/ml, 25 μg/ml and 50 μg/ml. Cells were subsequently harvested after 24 hours, stained with Krishan's solution, and analyzed with flow cytometry as previously described.
Series [4] deals with Jurkat cells. As to the kind of experiment: Side effect of peptide used alone: Jurkat cell cycle disturbance (flow cytometry). The class given is cell-based. The conditions noted are these: dose that produced Jurkat cell cycle disturbance, peptide alone. How it is done:
Cell-cycle analysis The cell cycle status of the cells treated with bleomycin or adriamcin were analyzed by flow cytometry as described by Kawabe (1997) Nature 385:454-458. In brief, two million cells were re-suspended and incubated in 200 μl Krishan's solution (0.1% Sodium citrate, 50 μg/ml PI, 20 μg/ml RNase A and 0.5% NP-40) for 1 hr at 4° C. and analyzed by a flow cytometry, FACScan™ (Beckton Dickinson, Mountain View, Calif.) with the program CELLQuest™ (Beckton Dickinson).
(§2) The “Appearance of side effect when used alone” indicates the peptide/peptidomimetic dose that produced Jurkat cell cycle disturbance, i.e., the appearance of significant amounts of SubG1 cells (dead cells) or cells in which the DNA content of each varies more than usual. […] The “G2 abrogating dose” indicates the peptide/peptidomimetic dose with 40 μg/ml bleomycine that produced detectable G2 checkpoint abrogation activity following treatment for 24 hours. The “Appearance of side effect when used with colchicine” indicates the peptide/peptidomimetic dose with 5 μg/ml colchicine that produced Jurkat cell cycle disturbance following treatment for 24 hours.

Series [5] concerns Jurkat cells. Briefly: M phase checkpoint abrogation / non specific toxicity, colchicine treated Jurkat cells. The class given is cell-based. The conditions noted are these: dose with 5 μg/ml colchicine that produced Jurkat cell cycle disturbance, 24 hours. How it is done: Flow cytometry analysis of M phase checkpoint abrogation by the compounds was performed using human T cell leukemia Jurkat cell line treated with colchicine (5 μg/ml or 0.5 μg/ml) and various doses of peptide/peptidomimetics for 24 hr (FIG. 12). The DNA of the cells was stained and analyzed by flow cytometry as described above.
as §2
A comparison between G2 checkpoint abrogating activity and non specific toxicity (M checkpoint abrogation) by CB501 was performed. In brief, Jurkat cells were treated with 40 μg/ml bleomycin or 0.5 μg/ml colchicine for G2 checkpoint abrogating activity and non specific toxicity, respectively. The DNA amount in each of the treated cells was analyzed by flow cytometry, as previously described.

Square brackets hold non-standard residues; d marks the D form. Ends that are not written are not given here. Peptide text beside a SMILES is read from it. dPhe(F5) = N[C@H](Cc1c(F)c(F)c(F)c(F)c1F)C(=O)O; dBpa = N[C@H](Cc1ccc(C(=O)c2ccccc2)cc1)C(=O)O; dCha = N[C@H](CC1CCCCC1)C(=O)O; Aun = NCCCCCCCCCCC(=O)O

Consider `N=C(N)NCCC[C@@H](NC(=O)[C@@H](CCCNC(=N)N)NC(=O)[C@@H](CCC(N)=O)NC(=O)[C@@H](CCCNC(=N)N)NC(=O)[C@@H](CCCNC(=N)N)NC(=O)[C@@H](CCCNC(=N)N)NC(=O)[C@@H](CC1CCCCC1)NC(=O)[C@@H](Cc1c(F)c(F)c(F)c(F)c1F)NC(=O)[C@@H](CO)NC(=O)[C@@H](Cc1c[nH]c2ccccc12)NC(=O)[C@@H](CO)NC(=O)[C@@H](CC(=O)O)NC(=O)[C@H](N)Cc1ccc(C(=O)c2ccccc2)cc1)C(=O)O` [CBP505, (d-Bpa)(d-Asp)(d-Ser)(d-Trp)(d-Ser)(d-Phe-2,3,4,5,6-F)(d-Cha)(d-Arg)(d-Arg)(d-Arg)(d-Gln)(d-Arg)(d-Arg)] (H-[dBpa][dD][dS][dW][dS][dPhe(F5)][dCha][dR][dR][dR][dQ][dR][dR]-OH; N-terminus and C-terminus assumed), for which the figures for the IC50 in series [1] and in series [2] were 63.4 µM and greater than 100 µM, respectively.

Take “(d-Arg)(d-Arg)(d-Bpa)(d-Arg)(d-Arg)(d-Arg)(d-Phe-2,3,4,5,6-F)(d-Cha) ([dR][dR][dBpa][dR][dR][dR][dPhe(F5)][dCha]) [CBP700]”: the “G2 checkpoint abrogating activity (in words)” value in series [3] is recorded as “retain G2 checkpoint abrogating activity comparable to other peptides having significant G2 checkpoint abrogating activity”.

For the molecule `N=C(N)NCCC[C@@H](NC(=O)[C@@H](CCCCN)NC(=O)[C@@H](CCCCN)NC(=O)[C@@H](CCCNC(=N)N)NC(=O)[C@@H](CCCNC(=N)N)NC(=O)[C@@H](CCC(N)=O)NC(=O)[C@@H](CCCNC(=N)N)NC(=O)[C@@H](CCCNC(=N)N)NC(=O)[C@@H](CCCNC(=N)N)NC(=O)[C@@H](CC1CCCCC1)NC(=O)[C@@H](Cc1c(F)c(F)c(F)c(F)c1F)NC(=O)CCCCCCCCCCNC(=O)[C@H](Cc1ccc(O)cc1)NC(=O)[C@@H](N)Cc1ccc(O)cc1)C(=O)NCC(=O)N[C@H](Cc1ccc(O)cc1)C(=O)O` [CBP460, (1-Tyr)(1-Tyr)(1-aminoundecanoic acid)(d-Phe-2,3,4,5,6-F)(d-Cha)(d-Arg)(d-Arg)(d-Arg)(d-Gln)(d-Arg)(d-Arg)(d-Lys)(d-Lys)(d-Arg)(1-Gly)(d-Tyr)] (H-YY[Aun][dPhe(F5)][dCha][dR][dR][dR][dQ][dR][dR][dK][dK][dR]G[dY]-OH; N-terminus and C-terminus assumed), the “Appearance of side effect when used alone” value (“Appearance … when used alone” for short) in series [4] was greater than 3.125 µM. The “Appearance of side effect when used with Colchicine” value (shortened to “Appearance … with Colchicine”) in series [5] is greater than 3.125 µM.

For “(d-Arg)(d-Arg)(d-Arg)(d-Bpa)(d-Arg)(d-Trp)(d-Arg)(d-Phe-2,3,4,5,6-F)(d-Cha) ([dR][dR][dR][dBpa][dR][dW][dR][dPhe(F5)][dCha]) [CBP701]”, the “G2 checkpoint abrogating activity (in words)” value in series [3] is given as “retain G2 checkpoint abrogating activity comparable to other peptides having significant G2 checkpoint abrogating activity”.

`N=C(N)NCCC[C@@H](NC(=O)[C@@H](CCCCN)NC(=O)[C@@H](CCCCN)NC(=O)[C@@H](CCCNC(=N)N)NC(=O)[C@@H](CCCNC(=N)N)NC(=O)[C@@H](CCC(N)=O)NC(=O)[C@@H](CCCNC(=N)N)NC(=O)[C@@H](CCCNC(=N)N)NC(=O)[C@@H](CCCNC(=N)N)NC(=O)[C@@H](CC1CCCCC1)NC(=O)[C@@H](Cc1c(F)c(F)c(F)c(F)c1F)NC(=O)CCCCCCCCCCNC(=O)[C@@H](N)Cc1ccc(O)cc1)C(=O)NCC(=O)N[C@H](Cc1ccc(O)cc1)C(=O)O` [CBP461, (1-Tyr)(1-aminoundecanoic acid)(d-Phe-2,3,4,5,6-F)(d-Cha)(d-Arg)(d-Arg)(d-Arg)(d-Gln)(d-Arg)(d-Arg)(d-Lys)(d-Lys)(d-Arg)(1-Gly)(d-Tyr)] (H-Y[Aun][dPhe(F5)][dCha][dR][dR][dR][dQ][dR][dR][dK][dK][dR]G[dY]-OH; N-terminus and C-terminus assumed): the “Appearance … when used alone” value in series [4] was greater than 6.25 µM. The “Appearance … with Colchicine” value in series [5] is greater than 6.25 µM.

In the case of `N=C(N)NCCC[C@@H](NC(=O)[C@@H](CCCCN)NC(=O)[C@@H](CCCCN)NC(=O)[C@@H](CCCNC(=N)N)NC(=O)[C@@H](CCCNC(=N)N)NC(=O)[C@@H](CCC(N)=O)NC(=O)[C@@H](CCCNC(=N)N)NC(=O)[C@@H](CCCNC(=N)N)NC(=O)[C@@H](CCCNC(=N)N)NC(=O)[C@@H](CC1CCCCC1)NC(=O)[C@@H](Cc1c(F)c(F)c(F)c(F)c1F)NC(=O)CCCCCCCCCCN)C(=O)NCC(=O)N[C@H](Cc1ccc(O)cc1)C(=O)O` [CBP463, (1-aminoundecanoic acid)(d-Phe-2,3,4,5,6-F)(d-Cha)(d-Arg)(d-Arg)(d-Arg)(d-Gln)(d-Arg)(d-Arg)(d-Lys)(d-Lys)(d-Arg)(1-Gly)(d-Tyr)] (H-[Aun][dPhe(F5)][dCha][dR][dR][dR][dQ][dR][dR][dK][dK][dR]G[dY]-OH; N-terminus and C-terminus assumed), the “Appearance … when used alone” value in series [4] is greater than 6.25 µM. The “Appearance … with Colchicine” value in series [5] was greater than 6.25 µM.

In the case of `N=C(N)NCCC[C@H](NC(=O)CNC(=O)[C@@H](N)Cc1ccc(O)cc1)C(=O)N[C@@H](CCCCN)C(=O)N[C@@H](CCCCN)C(=O)N[C@@H](CCCNC(=N)N)C(=O)N[C@@H](CCCNC(=N)N)C(=O)N[C@@H](CCC(N)=O)C(=O)N[C@@H](CCCNC(=N)N)C(=O)N[C@@H](CCCNC(=N)N)C(=O)N[C@@H](CCCNC(=N)N)C(=O)N[C@@H](CC1CCCCC1)C(=O)N[C@@H](Cc1c(F)c(F)c(F)c(F)c1F)C(=O)N[C@@H](CCCNC(=N)N)C(=O)N[C@@H](CO)C(=O)N1CCC[C@H]1C(=O)N[C@@H](CO)C(=O)N[C@@H](Cc1ccc(O)cc1)C(=O)O` [CBP420, (1-Tyr)(1-Gly)(1-Arg)(1-Lys)(1-Lys)(1-Arg)(1-Arg)(1-Gln)(1-Arg)(1-Arg)(1-Arg)(1-Cha)(1-Phe-2,3,4,5,6-F)(1-Arg)(1-Ser)(1-Pro)(1-Ser)(1-Tyr)], in series [4], the “Appearance … when used alone” value was greater than 50 µM. Besides, the “Appearance … with Colchicine” value in series [5] was no less than 50 µM.

In the case of “(d-Arg)(d-Arg)(d-Arg)(d-Arg)(d-Bpa)(d-Arg)(d-Trp)(d-Arg)(d-Phe-2,3,4,5,6-F)(d-Cha) ([dR][dR][dR][dR][dBpa][dR][dW][dR][dPhe(F5)][dCha]) [CBP702]”, the “G2 checkpoint abrogating activity (in words)” value in series [3] is recorded as “retain G2 checkpoint abrogating activity comparable to other peptides having significant G2 checkpoint abrogating activity”.

`N=C(N)NCCC[C@H](NC(=O)CNC(=O)[C@@H](N)Cc1ccc(O)cc1)C(=O)N[C@@H](CCCCN)C(=O)N[C@@H](CCCCN)C(=O)N[C@@H](CCCNC(=N)N)C(=O)N[C@@H](CCCNC(=N)N)C(=O)N[C@@H](CCC(N)=O)C(=O)N[C@@H](CCCNC(=N)N)C(=O)N[C@@H](CCCNC(=N)N)C(=O)N[C@@H](CCCNC(=N)N)C(=O)N[C@@H](CC1CCCCC1)C(=O)N[C@@H](Cc1c(F)c(F)c(F)c(F)c1F)C(=O)NCCCCCCCCCCC(=O)N[C@@H](Cc1ccc(O)cc1)C(=O)N[C@@H](Cc1ccc(O)cc1)C(=O)O` [CBP440, (1-Tyr)(1-Gly)(1-Arg)(1-Lys)(1-Lys)(1-Arg)(1-Arg)(1-Gln)(1-Arg)(1-Arg)(1-Arg)(1-Cha)(1-Phe-2,3,4,5,6-F)(1-aminoundecanoic acid)(1-Tyr)(1-Tyr)]: in series [4], the “Appearance … when used alone” value is greater than 12.5 µM. For the same molecule, the “Appearance … with Colchicine” value in series [5] was greater than 3.125 µM.

On to “(d-Arg)(d-Arg)(d-Arg)(d-Bpa)(d-Arg)(d-Arg)(d-Arg)(d-Phe-2,3,4,5,6-F)(d-Cha) ([dR][dR][dR][dBpa][dR][dR][dR][dPhe(F5)][dCha]) [CBP703]”, for which the “G2 checkpoint abrogating activity (in words)” value in series [3] is recorded as “retain G2 checkpoint abrogating activity comparable to other peptides having significant G2 checkpoint abrogating activity”.

For orientation: IC50 means the midpoint of a concentration-inhibition curve.

For the origin of these results see patent US10149887B2, “Peptides and peptidomimetics in combination with t cell activating and/or checkpoint inhibiting agents for cancer treatment” (CanBas Co., Ltd., priority 2015, dated 2018).
